Experimental data taken from article PMC4032177 (Journal of medicinal chemistry, 2013).
One block for each compound: values may come before it.

Columns and labels:
EGFR = EGFR (Homo sapiens, UniProt P00533); assay: Kinase specificity profiling; format: binding
ERK2 = ERK2 (Homo sapiens, UniProt P28482); assay: Kinase specificity profiling; format: binding
AKT2 = AKT2 (Homo sapiens, UniProt P31751); assay: Kinase specificity profiling; format: binding
DLK [1] = target: T1, DLK (Homo sapiens, UniProt Q12852); assay: DLK kinase inhibition; format: biochemical
T1 sequence (Q12852 1-859): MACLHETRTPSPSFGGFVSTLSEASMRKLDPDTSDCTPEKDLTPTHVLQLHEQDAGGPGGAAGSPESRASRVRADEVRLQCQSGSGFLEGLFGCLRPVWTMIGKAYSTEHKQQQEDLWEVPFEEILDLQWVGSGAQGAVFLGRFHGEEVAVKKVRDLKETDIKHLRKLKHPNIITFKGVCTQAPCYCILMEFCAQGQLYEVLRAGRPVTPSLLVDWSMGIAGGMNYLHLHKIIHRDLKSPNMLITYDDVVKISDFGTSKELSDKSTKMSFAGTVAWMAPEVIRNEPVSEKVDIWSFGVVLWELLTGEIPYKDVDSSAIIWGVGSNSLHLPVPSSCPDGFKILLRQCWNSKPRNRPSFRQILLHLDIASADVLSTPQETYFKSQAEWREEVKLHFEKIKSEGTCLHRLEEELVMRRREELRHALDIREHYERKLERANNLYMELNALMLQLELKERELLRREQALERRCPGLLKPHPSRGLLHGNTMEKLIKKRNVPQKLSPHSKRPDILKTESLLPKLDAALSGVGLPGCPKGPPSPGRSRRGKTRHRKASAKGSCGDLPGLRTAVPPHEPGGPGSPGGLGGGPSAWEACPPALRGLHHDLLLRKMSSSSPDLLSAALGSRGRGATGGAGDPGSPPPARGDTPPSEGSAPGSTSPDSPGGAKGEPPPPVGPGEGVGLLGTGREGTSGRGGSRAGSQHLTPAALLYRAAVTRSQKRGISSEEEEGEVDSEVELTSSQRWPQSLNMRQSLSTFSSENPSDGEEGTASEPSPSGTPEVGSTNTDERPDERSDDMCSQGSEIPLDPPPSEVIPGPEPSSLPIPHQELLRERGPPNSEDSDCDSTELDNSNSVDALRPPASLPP

[2] = test system: phosphorylated JNK (pJNK) in brain; assay: Inhibition of JNK phosphorylation in HIV-Tat treated mice; format: in vivo, C57BL/6 mice; settings: 10 mg/kg i.p. every twelve hours
MLK3 = MLK3 (Homo sapiens, UniProt Q16584); assay: Radiometric MLK3 kinase inhibition assay; format: biochemical
Sequence of MLK3 (Q16584 whole entry): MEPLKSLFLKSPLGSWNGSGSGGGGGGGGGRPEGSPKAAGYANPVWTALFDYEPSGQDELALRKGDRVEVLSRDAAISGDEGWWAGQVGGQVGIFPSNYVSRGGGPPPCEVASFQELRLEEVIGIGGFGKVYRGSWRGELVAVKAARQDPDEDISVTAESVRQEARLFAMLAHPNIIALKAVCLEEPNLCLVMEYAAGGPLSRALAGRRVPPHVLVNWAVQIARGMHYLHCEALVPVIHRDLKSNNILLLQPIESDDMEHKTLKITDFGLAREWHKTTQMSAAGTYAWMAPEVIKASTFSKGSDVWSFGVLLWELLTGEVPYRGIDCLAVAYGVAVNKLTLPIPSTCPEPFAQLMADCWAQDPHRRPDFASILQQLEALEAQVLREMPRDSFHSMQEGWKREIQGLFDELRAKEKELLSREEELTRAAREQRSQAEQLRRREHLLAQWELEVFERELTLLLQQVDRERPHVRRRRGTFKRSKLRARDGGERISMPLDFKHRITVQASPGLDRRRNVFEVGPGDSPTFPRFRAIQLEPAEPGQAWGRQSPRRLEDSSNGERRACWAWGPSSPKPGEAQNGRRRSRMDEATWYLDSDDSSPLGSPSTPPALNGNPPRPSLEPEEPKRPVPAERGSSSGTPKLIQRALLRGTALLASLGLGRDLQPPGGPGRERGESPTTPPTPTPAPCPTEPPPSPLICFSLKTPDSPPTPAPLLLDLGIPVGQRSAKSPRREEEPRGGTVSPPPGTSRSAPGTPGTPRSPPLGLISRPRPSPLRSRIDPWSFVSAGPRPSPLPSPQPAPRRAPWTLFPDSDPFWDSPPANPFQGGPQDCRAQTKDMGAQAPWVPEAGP

BRAF = BRAF (Homo sapiens, UniProt P15056); assay: Kinase specificity profiling; format: binding
Sequence of BRAF (P15056 whole entry): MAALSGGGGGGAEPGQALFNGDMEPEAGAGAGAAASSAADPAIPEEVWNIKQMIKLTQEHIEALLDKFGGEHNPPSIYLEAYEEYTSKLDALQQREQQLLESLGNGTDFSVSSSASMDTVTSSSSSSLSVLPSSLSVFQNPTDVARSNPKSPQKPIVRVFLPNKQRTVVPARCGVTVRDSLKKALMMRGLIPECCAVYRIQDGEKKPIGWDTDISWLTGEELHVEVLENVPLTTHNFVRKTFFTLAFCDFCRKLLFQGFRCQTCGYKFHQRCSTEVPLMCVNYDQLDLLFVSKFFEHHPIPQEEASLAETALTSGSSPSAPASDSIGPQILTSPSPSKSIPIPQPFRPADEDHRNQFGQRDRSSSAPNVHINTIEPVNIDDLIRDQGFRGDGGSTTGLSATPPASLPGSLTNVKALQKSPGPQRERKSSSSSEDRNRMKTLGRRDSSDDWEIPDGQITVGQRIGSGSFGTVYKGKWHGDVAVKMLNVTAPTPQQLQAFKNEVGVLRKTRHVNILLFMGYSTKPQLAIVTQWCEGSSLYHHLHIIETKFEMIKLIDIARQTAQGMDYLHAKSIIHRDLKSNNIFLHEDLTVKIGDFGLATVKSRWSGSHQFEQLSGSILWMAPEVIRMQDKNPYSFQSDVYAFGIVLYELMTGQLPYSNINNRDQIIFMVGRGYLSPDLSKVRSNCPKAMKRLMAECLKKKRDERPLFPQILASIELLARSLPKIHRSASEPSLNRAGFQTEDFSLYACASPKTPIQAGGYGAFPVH

AKT3 = AKT3 (Homo sapiens, UniProt Q9Y243); assay: Kinase specificity profiling; format: binding
Sequence of AKT3 (Q9Y243 whole entry): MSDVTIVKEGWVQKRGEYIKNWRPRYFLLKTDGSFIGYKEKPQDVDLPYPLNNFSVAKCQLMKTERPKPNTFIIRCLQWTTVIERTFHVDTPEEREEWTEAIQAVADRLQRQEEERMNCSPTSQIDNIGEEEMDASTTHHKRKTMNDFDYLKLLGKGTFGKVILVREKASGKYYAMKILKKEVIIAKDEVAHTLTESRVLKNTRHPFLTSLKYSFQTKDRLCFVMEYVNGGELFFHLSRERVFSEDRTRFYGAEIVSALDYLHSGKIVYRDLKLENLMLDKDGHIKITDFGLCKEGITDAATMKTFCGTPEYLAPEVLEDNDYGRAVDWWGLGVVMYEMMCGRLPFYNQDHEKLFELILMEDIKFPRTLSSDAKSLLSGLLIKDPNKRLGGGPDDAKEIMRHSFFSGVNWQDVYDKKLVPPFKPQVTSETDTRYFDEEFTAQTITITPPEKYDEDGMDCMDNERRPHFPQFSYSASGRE

ERK1 = ERK1 (Homo sapiens, UniProt P27361); assay: Kinase specificity profiling; format: binding
AKT1 = AKT1 (Homo sapiens, UniProt P31749); assay: Kinase specificity profiling; format: binding
Sequence of AKT1 (P31749 whole entry): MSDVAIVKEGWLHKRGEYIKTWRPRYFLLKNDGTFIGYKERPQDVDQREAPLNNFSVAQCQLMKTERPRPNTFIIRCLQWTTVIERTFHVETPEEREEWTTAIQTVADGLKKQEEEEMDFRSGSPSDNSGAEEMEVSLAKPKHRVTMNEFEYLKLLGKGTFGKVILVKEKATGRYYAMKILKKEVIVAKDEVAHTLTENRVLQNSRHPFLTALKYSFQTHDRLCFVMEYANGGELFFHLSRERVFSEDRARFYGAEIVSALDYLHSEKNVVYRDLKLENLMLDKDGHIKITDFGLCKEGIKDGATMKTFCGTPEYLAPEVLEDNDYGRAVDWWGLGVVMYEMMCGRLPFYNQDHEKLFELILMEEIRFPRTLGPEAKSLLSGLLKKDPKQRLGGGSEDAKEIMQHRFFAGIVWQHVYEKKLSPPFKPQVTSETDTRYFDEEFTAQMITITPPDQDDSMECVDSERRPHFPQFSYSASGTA

CDK11 = CDK11 (Homo sapiens, UniProt Q9BWU1); assay: DiscoverRx ScanMax kinome binding scan; settings: read-out: CDK11 % inhibition (ScanMax)
DLK [3] = target: T1, DLK; assay: DiscoverRx ScanMax kinome binding scan
LRRK2 = LRRK2 (Homo sapiens, UniProt Q5S007); assay: DiscoverRx ScanMax kinome binding scan; settings: read-out: LRRK2 % inhibition of binding (ScanMax), 1 μM
Sequence of LRRK2 (Q5S007 whole entry): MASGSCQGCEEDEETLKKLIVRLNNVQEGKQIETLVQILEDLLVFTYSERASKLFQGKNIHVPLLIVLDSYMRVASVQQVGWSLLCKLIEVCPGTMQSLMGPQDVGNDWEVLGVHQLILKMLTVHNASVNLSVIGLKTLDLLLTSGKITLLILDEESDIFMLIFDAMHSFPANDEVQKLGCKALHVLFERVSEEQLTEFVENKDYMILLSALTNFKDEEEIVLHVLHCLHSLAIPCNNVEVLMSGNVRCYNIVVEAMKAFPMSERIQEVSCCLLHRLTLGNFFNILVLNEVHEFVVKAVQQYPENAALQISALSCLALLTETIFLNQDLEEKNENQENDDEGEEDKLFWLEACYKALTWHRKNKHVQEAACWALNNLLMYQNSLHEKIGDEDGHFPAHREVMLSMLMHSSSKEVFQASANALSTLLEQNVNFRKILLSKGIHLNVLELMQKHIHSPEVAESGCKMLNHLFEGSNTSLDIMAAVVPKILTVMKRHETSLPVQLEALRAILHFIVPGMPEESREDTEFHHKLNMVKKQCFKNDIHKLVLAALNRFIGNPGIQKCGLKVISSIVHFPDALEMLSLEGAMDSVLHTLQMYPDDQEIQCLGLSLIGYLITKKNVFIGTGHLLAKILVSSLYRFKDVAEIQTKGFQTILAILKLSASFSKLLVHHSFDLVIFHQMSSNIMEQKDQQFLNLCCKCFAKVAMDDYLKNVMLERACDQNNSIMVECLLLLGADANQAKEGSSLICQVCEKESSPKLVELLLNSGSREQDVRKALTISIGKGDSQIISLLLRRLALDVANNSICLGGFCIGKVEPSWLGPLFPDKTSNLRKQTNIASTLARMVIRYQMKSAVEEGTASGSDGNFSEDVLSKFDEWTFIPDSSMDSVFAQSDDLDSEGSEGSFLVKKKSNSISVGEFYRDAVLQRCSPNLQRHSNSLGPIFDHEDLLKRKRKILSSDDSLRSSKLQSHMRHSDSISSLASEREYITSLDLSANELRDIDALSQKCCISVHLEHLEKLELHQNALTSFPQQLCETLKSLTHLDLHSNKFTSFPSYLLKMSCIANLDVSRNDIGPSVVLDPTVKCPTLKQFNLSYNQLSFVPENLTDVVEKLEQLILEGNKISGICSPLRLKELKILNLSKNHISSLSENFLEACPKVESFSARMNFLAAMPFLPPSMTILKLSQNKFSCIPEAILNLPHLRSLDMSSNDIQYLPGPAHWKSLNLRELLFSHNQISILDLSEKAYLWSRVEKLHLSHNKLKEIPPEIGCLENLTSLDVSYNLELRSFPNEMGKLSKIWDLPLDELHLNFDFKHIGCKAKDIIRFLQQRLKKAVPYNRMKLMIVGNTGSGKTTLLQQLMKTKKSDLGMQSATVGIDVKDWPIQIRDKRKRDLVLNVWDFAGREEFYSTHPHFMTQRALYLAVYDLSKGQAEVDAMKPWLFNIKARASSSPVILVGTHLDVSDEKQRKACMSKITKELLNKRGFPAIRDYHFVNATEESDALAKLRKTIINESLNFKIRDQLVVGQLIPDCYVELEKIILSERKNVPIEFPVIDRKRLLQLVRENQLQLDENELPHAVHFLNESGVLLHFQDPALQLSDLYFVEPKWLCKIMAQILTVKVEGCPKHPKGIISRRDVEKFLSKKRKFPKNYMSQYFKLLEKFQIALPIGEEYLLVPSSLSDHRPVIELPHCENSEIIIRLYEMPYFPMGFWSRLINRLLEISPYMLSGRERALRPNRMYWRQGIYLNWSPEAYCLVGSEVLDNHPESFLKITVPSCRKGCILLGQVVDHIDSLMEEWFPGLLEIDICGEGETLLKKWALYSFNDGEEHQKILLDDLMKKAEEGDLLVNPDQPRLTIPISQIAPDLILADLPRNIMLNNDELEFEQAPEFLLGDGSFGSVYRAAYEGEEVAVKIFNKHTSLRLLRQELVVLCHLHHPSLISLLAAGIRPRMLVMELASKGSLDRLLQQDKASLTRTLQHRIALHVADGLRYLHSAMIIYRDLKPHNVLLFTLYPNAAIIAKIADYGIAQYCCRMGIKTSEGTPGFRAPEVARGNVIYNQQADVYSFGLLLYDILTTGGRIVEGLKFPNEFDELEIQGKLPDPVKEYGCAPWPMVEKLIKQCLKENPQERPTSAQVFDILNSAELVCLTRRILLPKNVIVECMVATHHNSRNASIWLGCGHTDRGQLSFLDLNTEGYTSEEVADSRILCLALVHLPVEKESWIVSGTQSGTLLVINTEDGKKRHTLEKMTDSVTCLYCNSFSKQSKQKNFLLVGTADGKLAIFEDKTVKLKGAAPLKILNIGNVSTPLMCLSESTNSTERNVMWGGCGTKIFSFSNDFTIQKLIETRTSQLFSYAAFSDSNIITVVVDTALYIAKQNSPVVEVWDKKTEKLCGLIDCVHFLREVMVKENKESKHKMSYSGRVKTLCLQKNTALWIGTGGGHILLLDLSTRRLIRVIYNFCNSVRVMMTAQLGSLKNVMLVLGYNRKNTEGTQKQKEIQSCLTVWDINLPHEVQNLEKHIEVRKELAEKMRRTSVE

- Activity against EGFR (EGFR): essentially inactive
- Activity against ERK2 (ERK2): essentially inactive
- Activity against AKT2 (AKT2): essentially inactive
- IC50 (DLK [1]): 150 nM
- Ki (MLK3): ~10 nM
- Activity against BRAF (BRAF): essentially inactive
- Activity against AKT3 (AKT3): essentially inactive
- Activity against ERK1 (ERK1): essentially inactive
- Activity against AKT1 (AKT1): essentially inactive
- inhibition at 1 µM (CDK11): > 90%
- Kd (DLK [3]): 70 nM
Structure (SMILES): CN1CCN(Cc2ccc(-c3cnc4[nH]cc(-c5ccc6[nH]ccc6c5)c4c3)cc2)CC1 [Compound 1, 3-(1H-Indol-5-yl)-5-(4-((4-methylpiperazin-1-yl)methyl)phenyl)-1H-pyrrolo[2,3-b]pyridine]
- pJNK levels in saline-treated animals [2]: no effect

- inhibition at 1 µM (LRRK2): > 99%
Structure (SMILES): CCSCc1ccc2c(c1)c1c3c(c4c5cc(CSCC)ccc5n5c4c1n2[C@H]1C[C@](O)(C(=O)OC)[C@]5(C)O1)CNC3=O [Compound 2, (9S,10R,12R)-9,12-Epoxy-1H-diindolo[1,2,3-fg:3′,2′,1′-kl]pyrrolo[3,4-i][1,6]benzodiazocine-10-carboxylic acid, 5,16-bis[(ethylthio)methyl]-2,3,9,10,11,12-hexahydro-10-hydroxy-9-methyl-1-oxo methyl ester]

- IC50 (MLK3): 40 to 120 nM
Structure (SMILES): COc1cc(-c2cnc3[nH]c(=O)n(-c4ccc5[nH]ccc5c4)c3n2)cc(OC)c1OC [Compound 7, 1-(1H-Indol-5-yl)-6-(3,4,5-trimethoxyphenyl)-1H-imidazo[4,5-b]pyrazin-2(3H)-one]
